How the values were obtained:
[1] = system: HeLa cells expressing ECFP-5D4; test: Long-term-stable fluorescence imaging based on tag/probe binding/dissociation equilibrium; conditions: 10 nM probe in extracellular fluid, whole cell irradiated with intense excitation light
Description: HeLa cells expressing ECFP-5D4 were immersed for one hour at room temperature in HBS including 10 nM 6SiR-pCOONHMeoNP, and fluorescence imaging thereof was performed without modification of this state with the probe present at a concentration of 10 nM in the extracellular fluid. […] In super-resolution imaging and other fluorescence observation in which photobleaching has hitherto been a serious problem, the tag/probe method developed herein has the revolutionary characteristic of making it possible to obtain a semi-permanent fluorescence signal without limitation by photobleaching.

[2] = system: ECFP-5D4 (Y96F) with endoplasmic reticulum localization signal in HeLa cells; test: Super-resolution imaging by single-molecule localization; assay type: cell-based; conditions: 10 nM probe, 640 nm laser, relative to normal fluorescence microscope image
Description: An ECFP-5D4 (Y96F) expression plasmid (pECFP-5D4 (Y96F)-ER) to which an endoplasmic reticulum localization signal sequence was added was introduced to HeLa cells cultured on a 96-well plate, using Lipofectamine 2000. At 20 hours after plasmid introduction, the cells were treated with trypsin/EDTA and stripped, and then re-seeded on a cover glass coated with collagen/poly-L-lysine. At 20 hours after re-seeding, the cells were washed with HBS, loaded with 10 nM 6SiR-DNP, and subjected to super-resolution imaging. A specimen was excited using a 640 nm semiconductor laser, and fluorescence intermittency images of a single molecule were continuously acquired at an exposure of 16 milliseconds by a backside-illuminated cooled EM-CCD camera (iXon, Andor Technology). A centroid position of a bright point of single-molecule fluorescence in each image was determined, and a super-resolution image was reconstructed.

5D4 = test: Fluorescence change characteristics of fluorophore-DNP pair in presence and absence of 5D4; assay type: biochemical, mouse
Description: The anti-DNP scFv was expressed and purified as a fusion protein of maltose-binding protein. Escherichia coli BL21 (DE3) was transformed with the pMalc5E vector (pMalc5E-scFv) into which the purification object scFv sequence was introduced, and was cultured overnight on an LB medium plate including 100 μg/mL of ampicillin. A single colony was picked up and cultured overnight in 5 mL of a liquid LB medium including 100 μg/mL of ampicillin, and 1 mL of the resultant culture liquid was transferred to 100 mL of LB medium including 100 μg/mL of ampicillin. Shake culturing was performed at 200 rpm and a temperature of 37° C. until an optical density at 600 nm of 0.8 was reached, and after shake culturing was performed for 30 minutes at 15° C., IPTG was added to give a final concentration of 0.5 mM, and shake culturing was continued overnight. The E. coli were recovered after culturing and were disrupted using a sonicator. […] An eluate was replaced with PBS, and yield was quantified by the Bradford method, after which the eluate was subjected to the measurements described below.
RNA was extracted from the hybridomas of the resultant four clones, and cDNA fragments of the variable regions of the light chains and heavy chains of monoclonal antibodies were obtained by reverse transcription. The cDNA fragments of the variable regions of the light chains and heavy chains were connected via a linker sequence by overlap PCR, and scFv constructs were constructed only from subclones (4E10 and 5D4) derived from wells 1E10 and 3B12, respectively. […] The nucleic acid sequence of the cDNA sequence coding for 5D4 was identified by sequencing (SEQ ID NO: 8), an amino acid sequence determined from the result thereof was analyzed using the IMGT database (http://www.imgt.org/), and a […] region was specified (FIG. 4).
This fluorescence characteristic is similar to that of Cy5 dye, which is widely used in fluorescence imaging in cells. In the presence of 5D4, the fluorescence intensity of 6SiR-DNP was increased by a factor of 98 relative to the fluorescence intensity thereof in the absence of 5D4 (FIG. 6B). When fluorescence quantum yield of 6SiR-DNP in a state in which 6SiR-DNP is bound to 5D4 was measured, the fluorescence quantum yield in the presence of an excess of 5D4 was 0.57. This value for the fluorescence quantum yield is large, and is equal to or greater than that of Cy5 (quantum yield=0.2-0.4) and Cy5.5 (quantum yield=0.24), which are also highly versatile fluorescent dyes in cell labeling experiments (Q. Zheng et al., Ultra-stable organic fluorophores for single-molecule research. Chem Soc Rev 43, 1044-1056 (2014).).

[3] = system: 5D4 fusion proteins in HeLa cells; test: Fluorescent labeling of 5D4 fusion proteins expressed in HeLa cells (live cell imaging); assay type: cell-based
Description: HEK293T cells and HeLa cells were cultured in Dulbecco's Modified Eagle's Medium (DMEM, Wako) including 10% fetal bovine serum (FBS, SIGMA) at a carbon dioxide concentration of 5% and a temperature of 37° C.
Gene transfer into HeLa cells was performed using lipofection. For the HeLa cells under culture in a 24-well dish, 25 μL of Opti-MEM I (GIBCO) to which 0.5 μg of a plasmid had been added was added to a mixed solution of 2 μL of Lipofectamine 2000 (Invitrogen) and 25 μL of Opti-MEM I and incubated for five minutes at room temperature. This mixture was added to 500 μL of a medium 90-100% confluent with HEK293T cells and HeLa cells, and culturing was performed at 37° C. at a carbon dioxide concentration of 5%. Cell concentration was diluted to 1/10 5 to 8 hours after transfection, and cells were re-seeded on a glass dish. Cells were subjected to various imaging experiments after 24 hours had passed since transfection.
Cells were observed using an inverted microscope (IX-71, Olympus) provided with a xenon arc lamp. Images were captured using an EM-CCD camera (iXon EM+, Andor). During acquisition of a 6SiR-DNP fluorescence image, a Cy5-4040C filter set (Semrock) comprising a 608-648 nm excitation light filter, a 660 nm dichroic mirror, and a 672-712 nm absorption filter was used.
During acquisition of a CFP fluorescence image, a U-MCFPHQ filter set (Olympus) comprising a 424-438 nm excitation light filter, a 450 nm dichroic mirror, and a 460-510 nm absorption filter was used. An objective lens (10×NA 0.3, 20×NA 0.75: Olympus) was used for the screening in FIG. 3, and an oil immersion objective lens (100× NA 1.4: Olympus) was used in the observations in FIGS. 5, 8, 9, and 10.
The HeLa cell medium was drawn up and washed with HBS buffer solution (25 mM HEPES, 125 mM NaCl, 2.5 mM KCl, 2 mM CaCl2, 1 mM MgCl2, and 25 mM D-glucose; pH 7.4), and cells were then observed in the HBS buffer solution including 6SiR-DNP at a concentration of 100 nM or 10 nM. Image capture was started 5 minutes after the 6SiR-DNP was added. Images were analyzed using ImageJ (NIH).
5D4 expressed at an arbitrary site in a cell was labeled with 6SiR-DNP, and the ability to observe a fluorescence image using a fluorescence microscope was investigated. When cells expressing only ECFP were loaded with 6SiR-DNP (FIG. 8A), and when ECFP to which 5D4 was added was expressed in cells but the cells were not loaded with 6SiR-DNP, a fluorescence signal due to 6SiR-DNP was not observed (FIG. 8B).
Using a β-tubulin protein as an observation object, a 5D4 fusion protein expression construct was transgenically introduced into a Hela cell. […] An attempt was also made to observe b-actin in the cell. When a fusion protein of β-actin and 5D4 was expressed in a HeLa cell and the cell was observed, a fibrous structure characteristic of β-actin was observed (FIG. 9B). In order to visualize F-actin internal to the cell, an expression construct in which a peptide sequence (Lifeact sequence) for specifically binding to F-actin was added to the N-terminus of 5D4 was transgenically introduced into a HeLa cell. A characteristic fibrous structure was observed that was similar to the structure observed when a fusion protein of β-actin and 5D4 was expressed in the cell (FIG. 9C).

SMILES | fluorescence signal after photobleaching [1] | super-resolution image of endoplasmic reticulum [2] | fluorescence quantum yield (5D4; bound to 5D4, in the presence of an excess of 5D4) | fluorescence intensity increased by a factor relative to absence of 5D4 (5D4; in the presence of 5D4) | absorption maximum (5D4; when 5D4 was present) | fluorescence maximum (5D4; when 5D4 was present) | fluorescent labeling at targeted intracellular sites ([3]; ECFP-5D4 with localization peptide for nucleus, cell membrane, endoplasmic reticulum, final concentration 0.1 μM) | fluorescence image of STIM1-5D4 fusion protein ([3]; HeLa cell stained with 6SiR-DNP) | fluorescence image of tubulin-5D4 fusion protein ([3]; HeLa cell, 6SiR-DNP present in the extracellular fluid) | 6SiR-DNP fluorescence signal ([3]; HeLa cells expressing 5D4 as fusion protein with ECFP) | fluorescence signal due to 6SiR-DNP ([3]; cells expressing only ECFP loaded with 6SiR-DNP)
CNC(=O)c1ccc(NCCOCCOCCNC(=O)c2ccc(C(=O)[O-])c(C3=C4C=CC(=[N+](C)C)C=C4[Si](C)(C)c4cc(N(C)C)ccc43)c2)c([N+](=O)[O-])c1 [6SiR-pCOONHMeoNP, 2-(7-(dimethylamino)-3-(dimethylimino)-5,5-dimethyl-3,5-dihydrodibenzo[b,e]silin-10-yl)-4-((2-(2-(2-((4-(methylcarbamoyl)-2-nitrophenyl)amino)ethoxy)ethoxy)ethyl)carbamoyl)benzoate] | recovery of the fluorescence signal after photobleaching was observed | – | – | – | – | – | – | – | – | – | –
CN(C)c1ccc2c(c1)[Si](C)(C)C1=CC(=[N+](C)C)C=CC1=C2c1cc(C(=O)NCCOCCOCCNc2ccc([N+](=O)[O-])cc2[N+](=O)[O-])ccc1C(=O)[O-] [Probe 6SiR-DNP, 2-(7-(dimethylamino)-3-(dimethylimino)-5,5-dimethyl-3,5-dihydrodibenzo[b,e]silin-10-yl)-4-((2-(2-(2-((2,4-dinitrophenyl)amino)ethoxy)ethoxy)ethyl)carbamoyl)benzoate] | – | visualized with high spatial resolution | 0.57 | 98 | 653 nm | 668 nm | fluorescent labeling at the targeted intracellular sites was accomplished for all the cells | a structure running along the endoplasmic reticulum and microtubules was observed | a fibrous structure characteristic of tubulin was observed | observed covering the entire cytoplasm | not observed
